According to patent US7888363B2, “Viral polymerase inhibitors” (Boehringer Ingelheim International GmbH, priority 2003, dated 2011):

Target: hepatitis C virus RNA dependant polymerase (NS5B) (Hepatitis C virus genotype 1b, UniProt P26663)
Assay: Inhibition of NS5B RNA dependent RNA polymerase activity
Format: biochemical
Description: A suitable assay is described in the examples.
Inhibition of NS5B RNA Dependent RNA Polymerase Activity
The compounds of the invention were tested for inhibitory activity against the hepatitis C virus RNA dependant polymerase (NS5B), according to protocol described in WO 03/010141

hepatitis C virus RNA dependant polymerase (NS5B), sequence (P26663 2420-3010): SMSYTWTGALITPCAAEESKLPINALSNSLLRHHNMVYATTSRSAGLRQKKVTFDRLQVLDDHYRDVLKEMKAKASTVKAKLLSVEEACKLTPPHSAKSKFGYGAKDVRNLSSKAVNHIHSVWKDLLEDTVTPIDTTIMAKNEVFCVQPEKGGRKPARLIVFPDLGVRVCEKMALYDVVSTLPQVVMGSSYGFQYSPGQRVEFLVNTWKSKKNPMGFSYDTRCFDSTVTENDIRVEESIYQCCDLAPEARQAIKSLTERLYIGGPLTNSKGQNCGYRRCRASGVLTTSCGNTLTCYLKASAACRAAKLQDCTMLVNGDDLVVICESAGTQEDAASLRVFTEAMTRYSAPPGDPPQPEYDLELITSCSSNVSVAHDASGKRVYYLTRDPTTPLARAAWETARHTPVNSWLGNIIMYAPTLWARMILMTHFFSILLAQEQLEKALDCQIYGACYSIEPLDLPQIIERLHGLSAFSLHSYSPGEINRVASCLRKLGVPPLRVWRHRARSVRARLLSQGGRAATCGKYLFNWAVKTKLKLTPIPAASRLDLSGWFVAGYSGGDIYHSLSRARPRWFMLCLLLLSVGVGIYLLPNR

Compound | IC50 (Table 1, HCV NS5B polymerase) [nM] | other results
O=C(O)c1ccc2c(C3CCCCC3)c(-c3cccs3)n(CC(=O)N3CCC(N4CCCC4)CC3)c2c1 [Example 1034] | < 200 | 
O=C(NCCc1ccccc1)c1ccc2c(C3CCCCC3)c(-c3ccoc3)n(CC(=O)N3CCOCC3)c2c1 [Example 4048] |  | IC50 (Table 4, class ranges): 1000 to 10000 nM
CN1CCN(C(=O)Cn2c(-c3ccoc3)c(C3CCCCC3)c3ccc(C(=O)NCCc4ccncc4)cc32)CC1 [Example 4035] |  | IC50 (Table 4, class ranges): 200 to 1000 nM
O=C(Nc1cccc(-c2ccccc2)c1)c1ccc2c(c1)c(C1CCCCC1)c(-c1ccoc1)n2CC(=O)N1CCC(N2CCCC2)CC1 [Example 7037] |  | IC50 (Table 7, class ranges): 1000 to 10000 nM
COc1ccc([C@@H](C)NC(=O)c2ccc3c(C4CCCCC4)c(-c4ccoc4)n(CC(=O)N4CCOCC4)c3c2)cc1 [Example 4051] |  | IC50 (Table 4, class ranges): 200 to 1000 nM
N#Cc1ccccc1S(=O)(=O)NC(=O)c1ccc2c(C3CCCCC3)c(-c3ccoc3)n(CC(=O)N3CCOCC3)c2c1 [Example 2032] |  | IC50 (Table 2, HCV NS5B polymerase): 200 to 1000 nM
O=C(O)/C=C/c1ccc(NC(=O)C2(NC(=O)c3ccc4c(C5CCCC5)c(-c5ccccn5)n(CC(=O)N5CCCC5)c4c3)CCC2)cc1 [Example 3010] |  | IC50 (Table 3, HCV NS5B polymerase): < 200 nM
O=C(NS(=O)(=O)c1ccc2ccccc2c1)c1ccc2c(C3CCCCC3)c(-c3ccoc3)n(CC(=O)N3CCOCC3)c2c1 [Example 2007] |  | IC50 (Table 2, HCV NS5B polymerase): < 200 nM
O=C(NS(=O)(=O)c1ccccc1Br)c1ccc2c(C3CCCCC3)c(-c3ccoc3)n(CC(=O)N3CCOCC3)c2c1 [Example 2011] |  | IC50 (Table 2, HCV NS5B polymerase): < 200 nM
CNC(=O)c1ccc2c(c1)c(C1CCCCC1)c(-c1ccoc1)n2CC(=O)N1CCC(N2CCCC2)CC1 [Example 7034] |  | IC50 (Table 7, class ranges): 1000 to 10000 nM
CN1CCN(C(=O)Cn2c(-c3ccoc3)c(C3CCCCC3)c3ccc(C(=O)NCCc4cccnc4)cc32)CC1 [Example 4040] |  | IC50 (Table 4, class ranges): 200 to 1000 nM
CC(C)(C)OC(=O)C(C)(C)NC(=O)c1ccc2c(c1)c(C1CCCCC1)c(-c1ccoc1)n2CC(=O)N1CCC(N2CCCC2)CC1 [Example 7047] |  | IC50 (Table 7, class ranges): 1000 to 10000 nM
O=C(Cn1c(-c2ccc(Br)cn2)c(C2CCCCC2)c2ccc(C(=O)O)cc21)NNC(=O)NC[C@H]1CC[C@H](C(=O)O)CC1 [Example 1141] | 200 to 1000 | 
CN1CCN(C(=O)Cn2c(-c3ccoc3)c(C3CCCCC3)c3ccc(C(=O)NC4CCCC4)cc32)CC1 [Example 4008] |  | IC50 (Table 4, class ranges): 200 to 1000 nM
O=C(NCCOCCO)c1ccc2c(c1)c(C1CCCCC1)c(-c1ccoc1)n2CC(=O)N1CCC(N2CCCC2)CC1 [Example 7059] |  | IC50 (Table 7, class ranges): 1000 to 10000 nM
NC(=O)C1CCN(C(=O)c2ccc3c(c2)c(C2CCCCC2)c(-c2ccoc2)n3CC(=O)N2CCC(N3CCCC3)CC2)CC1 [Example 7035] |  | IC50 (Table 7, class ranges): 1000 to 10000 nM
O=C(O)c1cc2c(cc1O)c(C1CCCCC1)c(-c1ccoc1)n2CC(=O)N1CCC(N2CCCC2)CC1 [Example 7007] |  | IC50 (Table 7, class ranges): 1000 to 10000 nM
CN1CCN(C(=O)Cn2c(-c3ccoc3)c(C3CCCCC3)c3ccc(C(=O)NC(C)(C)CO)cc32)CC1 [Example 4019] |  | IC50 (Table 4, class ranges): 200 to 1000 nM

Second part, led by results:

IC50 (Table 1, HCV NS5B polymerase) [nM] | Compound | other results
200 to 1000 | O=C(Cn1c(-c2ccoc2)c(C2CCCCC2)c2ccc(C(=O)O)cc21)Nc1ccccc1 [Example 1060] | 
< 200 | CN(CCc1ccccn1)C(=O)Cn1c(-c2ccoc2)c(C2CCCCC2)c2ccc(C(=O)O)cc21 [Example 1103] | 
< 200 | CCCN(C)C(=O)Cn1c(-c2ccoc2)c(C2CCCCC2)c2ccc(C(=O)O)cc21 [Example 1008] | 
< 200 | O=C(O)c1ccc2c(C3CCCCC3)c(-c3ccoc3)n(CC(=O)N3C[C@@H](O)C[C@H]3C(=O)O)c2c1 [Example 1128] | 
200 to 1000 | O=C(O)c1ccc2c(C3CCCCC3)c(-c3ccoc3)n(CC(=O)N3CCN(c4ccccc4)CC3)c2c1 [Example 1095] | 
< 200 | CN(CC(=O)O)C(=O)Cn1c(-c2ccoc2)c(C2CCCCC2)c2ccc(C(=O)O)cc21 [Example 1072] | 
200 to 1000 | CS(=O)(=O)NC(=O)Cn1c(-c2ccoc2)c(C2CCCCC2)c2ccc(C(=O)O)cc21 [Example 1013] | 
< 200 | COCCN1CCN(C(=O)Cn2c(-c3ccoc3)c(C3CCCCC3)c3ccc(C(=O)O)cc32)CC1 [Example 1126] | 
< 200 | CN(C)CC(=O)NNC(=O)Cn1c(-c2ccoc2)c(C2CCCCC2)c2ccc(C(=O)O)cc21 [Example 1132] | 
< 200 | O=C(O)c1ccc2c(C3CCCCC3)c(-c3ccoc3)n(CC(=O)N3CCSCC3)c2c1 [Example 1012] | 
< 200 | O=C(O)c1ccc2c(C3CCCCC3)c(-c3ccoc3)n(CC(=O)N3CCC(N4CCCC4)CC3)c2c1 [Example 1116] | 
< 200 | CN(C)CCCN(C)C(=O)Cn1c(-c2ccoc2)c(C2CCCCC2)c2ccc(C(=O)O)cc21 [Example 1019] | 
< 200 | CN1CCCN(C(=O)Cn2c(-c3ccoc3)c(C3CCCCC3)c3ccc(C(=O)O)cc32)CC1 [Example 1003] | 
200 to 1000 | CN(C)C(=O)Cn1c(-c2ccc(Br)cn2)c(C2CCCCC2)c2ccc(C(=O)O)cc21 [Example 1136] | 
200 to 1000 | CNC(=O)Cn1c(-c2ccoc2)c(C2CCCCC2)c2ccc(C(=O)O)cc21 [Example 1062] | 
